Measurements published in ChEMBL document CHEMBL4308841, “Synthesis, in vitro antiproliferative activity, and kinase inhibitory effects of pyrazole-containing diarylureas and diarylamides” (Eur J Med Chem, 2018).

Assays:
NCI-H226 = test: Growth inhibition of human NCI-H226 cells incubated for 48 hrs by sulforhodamine B assay; type: functional, cell-based; settings: NCI-H226, 48 h
SW-620 = test: Growth inhibition of human SW620 cells incubated for 48 hrs by sulforhodamine B assay; type: functional, cell-based; settings: SW-620, 48 h
SF-295 [1] = test: Growth inhibition of human SF295 cells incubated for 48 hrs by sulforhodamine B assay; type: functional, cell-based; settings: SF-295, 48 h
SNB-75 = test: Growth inhibition of human SNB75 cells incubated for 48 hrs by sulforhodamine B assay; type: functional, cell-based; settings: SNB-75, 48 h
SR = test: Growth inhibition of human SR cells assessed as cell growth at 0.01 uM incubated for 48 hrs by sulforhodamine B assay relative to control; type: functional; settings: read-out: Activity
NCI-H322M = test: Growth inhibition of human NCI-H322M cells assessed as cell growth at 0.01 uM incubated for 48 hrs by sulforhodamine B assay relative to control; type: functional; settings: read-out: Activity
U-251 = test: Growth inhibition of human U251 cells assessed as cell growth at 0.01 uM incubated for 48 hrs by sulforhodamine B assay relative to control; type: functional; settings: U-251, 48 h, read-out: Activity
M14 = test: Growth inhibition of human M14 cells assessed as cell growth at 0.01 uM incubated for 48 hrs by sulforhodamine B assay relative to control; type: functional; settings: M14, 48 h, read-out: Activity
MDA-MB-435 [2] = test: Growth inhibition of human MDA-MB-435 cells assessed as cell growth at 0.01 uM incubated for 48 hrs by sulforhodamine B assay relative to control; type: functional; settings: MDA-MB-435, 48 h, read-out: Activity
MDA-MB-231 = test: Growth inhibition of human MDA-MB-231 cells assessed as cell growth at 0.01 uM incubated for 48 hrs by sulforhodamine B assay relative to control; type: functional; settings: MDA-MB-231, 48 h, read-out: Activity
SF-295 [3] = test: Growth inhibition of human SF295 cells assessed as cell growth at 0.1 uM incubated for 48 hrs by sulforhodamine B assay relative to control; type: functional; settings: SF-295, 48 h, read-out: Activity
SF-539 = test: Growth inhibition of human SF539 cells assessed as cell growth at 0.1 uM incubated for 48 hrs by sulforhodamine B assay relative to control; type: functional; settings: SF-539, 48 h, read-out: Activity
LOX IMVI = test: Growth inhibition of human LOXIMVI cells assessed as cell growth at 0.1 uM incubated for 48 hrs by sulforhodamine B assay relative to control; type: functional; settings: read-out: Activity
OVCAR-4 [4] = test: Growth inhibition of human OVCAR4 cells assessed as cell growth at 0.1 uM incubated for 48 hrs by sulforhodamine B assay relative to control; type: functional; settings: OVCAR-4, 48 h, read-out: Activity
SK-OV-3 = test: Growth inhibition of human SKOV3 cells assessed as cell growth at 0.1 uM incubated for 48 hrs by sulforhodamine B assay relative to control; type: functional; settings: SK-OV-3, 48 h, read-out: Activity
UO-31 [5] = test: Growth inhibition of human UO31 cells assessed as cell growth at 0.1 uM incubated for 48 hrs by sulforhodamine B assay relative to control; type: functional; settings: UO-31, 48 h, read-out: Activity
PC-3 = test: Growth inhibition of human PC3 cells assessed as cell growth at 0.1 uM incubated for 48 hrs by sulforhodamine B assay relative to control; type: functional; settings: PC-3, 48 h, read-out: Activity
SF-268 [6] = test: Growth inhibition of human SF268 cells assessed as cell growth at 1 uM incubated for 48 hrs by sulforhodamine B assay relative to control; type: functional; settings: SF-268, 48 h, read-out: Activity
SF-295 [7] = test: Growth inhibition of human SF295 cells assessed as cell growth at 1 uM incubated for 48 hrs by sulforhodamine B assay relative to control; type: functional; settings: SF-295, 48 h, read-out: Activity
OVCAR-8 = test: Growth inhibition of human OVCAR8 cells assessed as cell growth at 1 uM incubated for 48 hrs by sulforhodamine B assay relative to control; type: functional; settings: OVCAR-8, 48 h, read-out: Activity
ACHN = test: Growth inhibition of human ACHN cells assessed as cell growth at 1 uM incubated for 48 hrs by sulforhodamine B assay relative to control; type: functional; settings: read-out: Activity
UO-31 [8] = test: Growth inhibition of human UO31 cells assessed as cell growth at 1 uM incubated for 48 hrs by sulforhodamine B assay relative to control; type: functional; settings: UO-31, 48 h, read-out: Activity
A549 = test: Growth inhibition of human A549/ATCC cells assessed as cell growth at 100 uM incubated for 48 hrs by sulforhodamine B assay relative to control; type: functional; settings: A549, 48 h, read-out: Activity
HCT-116 = test: Growth inhibition of human HCT116 cells assessed as cell growth at 100 uM incubated for 48 hrs by sulforhodamine B assay relative to control; type: functional; settings: HCT-116, 48 h, read-out: Activity
SF-268 [9] = test: Growth inhibition of human SF268 cells assessed as cell growth at 100 uM incubated for 48 hrs by sulforhodamine B assay relative to control; type: functional; settings: SF-268, 48 h, read-out: Activity
MDA-MB-435 [10] = test: Growth inhibition of human MDA-MB-435 cells assessed as cell growth at 100 uM incubated for 48 hrs by sulforhodamine B assay relative to control; type: functional; settings: MDA-MB-435, 48 h, read-out: Activity
SK-MEL-2 = test: Growth inhibition of human SK-MEL-2 cells assessed as cell growth at 100 uM incubated for 48 hrs by sulforhodamine B assay relative to control; type: functional; settings: SK-MEL-2, 48 h, read-out: Activity
OVCAR-4 [11] = test: Growth inhibition of human OVCAR4 cells assessed as cell growth at 100 uM incubated for 48 hrs by sulforhodamine B assay relative to control; type: functional; settings: OVCAR-4, 48 h, read-out: Activity
OVCAR-5 = test: Growth inhibition of human OVCAR5 cells assessed as cell growth at 100 uM incubated for 48 hrs by sulforhodamine B assay relative to control; type: functional; settings: OVCAR-5, 48 h, read-out: Activity
CAKI-1 = test: Growth inhibition of human Caki1 cells assessed as cell growth at 100 uM incubated for 48 hrs by sulforhodamine B assay relative to control; type: functional; settings: CAKI-1, 48 h, read-out: Activity
Hs-578T = test: Growth inhibition of human Hs578T cells assessed as cell growth at 100 uM incubated for 48 hrs by sulforhodamine B assay relative to control; type: functional; settings: read-out: Activity
[12] = read-out: LC50 (the source's name)
[13] = read-out: pLC50 (the source's name) (converted)

In the case of `COc1cc(Cl)cc(-c2nn(-c3cccc(NC(=O)c4cccc(C(F)(F)F)c4)c3)cc2-c2ccncc2)c1`, the GI50 (NCI-H226; read-out: GI50) is reported as over 100 µM, the LC50 (NCI-H226; read-out: LC50) is reported as over 100 µM and the TGI (NCI-H226; read-out: TGI) is reported as over 100 µM. It also gave a GI50 (NCI-H226; read-out: pGI50 (converted)) of over 100 µM, an LC50 (NCI-H226; read-out: pLC50 (converted)) of over 100 µM and a TGI (NCI-H226; read-out: pTGI (converted)) of over 100 µM. It also gave a GI50 (SW-620; read-out: GI50) of over 100 µM, an LC50 (SW-620; read-out: LC50) of over 100 µM and a TGI (SW-620; read-out: TGI) of over 100 µM. The GI50 (SW-620; read-out: pGI50 (converted)) was over 100 µM, the LC50 (SW-620; read-out: pLC50 (converted)) was over 100 µM and the TGI (SW-620; read-out: pTGI (converted)) was over 100 µM. For the same molecule, the CC50 (SF-295 [1]; [12]) was over 100 µM, the TGI (SF-295 [1]; read-out: TGI) was over 100 µM and the GI50 (SF-295 [1]; read-out: pGI50 (converted)) was 3.89 µM. It also gave a CC50 (SF-295 [1]; [13]) of over 100 µM, a TGI (SF-295 [1]; read-out: pTGI (converted)) of over 100 µM and a GI50 (SNB-75; read-out: GI50) of 5.52 µM. For the same molecule, the CC50 (SNB-75; [12]) was over 100 µM, the TGI (SNB-75; read-out: TGI) was over 100 µM and the GI50 (SNB-75; read-out: pGI50 (converted)) was 7.08 µM. It also gave a CC50 (SNB-75; [13]) of over 100 µM, a TGI (SNB-75; read-out: pTGI (converted)) of over 100 µM and a growth at 0.01 µM (SR) of 57%. The growth at 0.01 µM (NCI-H322M) was 69%, the growth at 0.01 µM (U-251) was 94% and the growth at 0.01 µM (M14) was 101%. It also gave a growth at 0.01 µM (MDA-MB-435 [2]) of 98%, a growth at 0.01 µM (MDA-MB-231) of 102% and a growth at 0.1 µM (SF-295 [3]) of 90%. The growth at 0.1 µM (SF-539) was 100%, the growth at 0.1 µM (LOX IMVI) was 95% and the growth at 0.1 µM (OVCAR-4 [4]) was 95%. It also gave a growth at 0.1 µM (SK-OV-3) of 105%, a growth at 0.1 µM (UO-31 [5]) of 88% and a growth at 0.1 µM (PC-3) of 52%. For the same molecule, the growth at 1 µM (SF-268 [6]) was 100%, the growth at 1 µM (SF-295 [7]) was 57% and the growth at 1 µM (OVCAR-8) was 93%. For the same molecule, the growth at 1 µM (ACHN) was 54%, the growth at 1 µM (UO-31 [8]) was 54% and the growth at 100 µM (A549) was 30%. For the same molecule, the growth at 100 µM (HCT-116) was 22%, the growth at 100 µM (SF-268 [9]) was 58% and the growth at 100 µM (MDA-MB-435 [10]) was 52%. For the same molecule, the growth at 100 µM (SK-MEL-2) was 47%, the growth at 100 µM (OVCAR-4 [11]) was 74% and the growth at 100 µM (OVCAR-5) was 59%. For the same molecule, the growth at 100 µM (CAKI-1) was 21% and the growth at 100 µM (Hs-578T) was 53%.
For `O=C(Nc1cccc(-n2cc(-c3ccncc3)c(-c3cc(O)cc(Cl)c3)n2)c1)Nc1ccc(Cl)c(Cl)c1`, the GI50 (NCI-H226; read-out: GI50) was 2.28 µM, the LC50 (NCI-H226; read-out: LC50) was over 100 µM and the TGI (NCI-H226; read-out: TGI) was 71.6 µM. For the same molecule, the GI50 (NCI-H226; read-out: pGI50 (converted)) was 2.29 µM, the LC50 (NCI-H226; read-out: pLC50 (converted)) was over 100 µM and the TGI (NCI-H226; read-out: pTGI (converted)) was 7.08 µM. For the same molecule, the GI50 (SW-620; read-out: GI50) was 3.22 µM, the LC50 (SW-620; read-out: LC50) was over 100 µM and the TGI (SW-620; read-out: TGI) was 99.7 µM. For the same molecule, the GI50 (SW-620; read-out: pGI50 (converted)) was 3.24 µM, the LC50 (SW-620; read-out: pLC50 (converted)) was over 100 µM and the TGI (SW-620; read-out: pTGI (converted)) was 10 µM. For the same molecule, the GI50 (SF-295 [1]; read-out: GI50) was 1.7 µM, the CC50 (SF-295 [1]; [12]) was 4.4 µM and the TGI (SF-295 [1]; read-out: TGI) was 45 µM. It also gave a GI50 (SF-295 [1]; read-out: pGI50 (converted)) of 1.7 µM, a CC50 (SF-295 [1]; [13]) of 43.7 µM and a TGI (SF-295 [1]; read-out: pTGI (converted)) of 4.57 µM. It also gave a GI50 (SNB-75; read-out: GI50) of 1.38 µM, a CC50 (SNB-75; [12]) of over 100 µM and a TGI (SNB-75; read-out: TGI) of 48.2 µM. For the same molecule, the GI50 (SNB-75; read-out: pGI50 (converted)) was 1.38 µM, the CC50 (SNB-75; [13]) was over 100 µM and the TGI (SNB-75; read-out: pTGI (converted)) was 4.79 µM. It also gave a growth at 0.01 µM (SR) of 57%, a growth at 0.01 µM (NCI-H322M) of 52% and a growth at 0.01 µM (U-251) of 96%. The growth at 0.01 µM (M14) was 99%, the growth at 0.01 µM (MDA-MB-435 [2]) was 96% and the growth at 0.01 µM (MDA-MB-231) was 94%. The growth at 0.1 µM (SF-295 [3]) was 87%, the growth at 0.1 µM (SF-539) was 95% and the growth at 0.1 µM (LOX IMVI) was 105%. For the same molecule, the growth at 0.1 µM (OVCAR-4 [4]) was 95%, the growth at 0.1 µM (SK-OV-3) was 103% and the growth at 0.1 µM (UO-31 [5]) was 93%. For the same molecule, the growth at 0.1 µM (PC-3) was 90%, the growth at 1 µM (SF-268 [6]) was 89% and the growth at 1 µM (SF-295 [7]) was 77%. The growth at 1 µM (OVCAR-8) was 56%, the growth at 1 µM (ACHN) was 79% and the growth at 1 µM (UO-31 [8]) was 78%. For the same molecule, the growth at 100 µM (A549) was -32%, the growth at 100 µM (HCT-116) was -61% and the growth at 100 µM (SF-268 [9]) was -11%. For the same molecule, the growth at 100 µM (MDA-MB-435 [10]) was -45%, the growth at 100 µM (SK-MEL-2) was -52% and the growth at 100 µM (OVCAR-4 [11]) was 9%. It also gave a growth at 100 µM (OVCAR-5) of -80%, a growth at 100 µM (CAKI-1) of -12% and a growth at 100 µM (Hs-578T) of 9%.
